Laboratory results as given in the NIST ThermoML archive (doi:10.1016/j.jct.2007.10.006).
Numbers after ± are expanded uncertainties.

Conditions: Crystal; thermal analyzer

Normal melting temperature: 268.1 ± 1 °C
SMILES: Oc1ccc(/C=C/c2cc(O)cc(O)c2)cc1 [5-[(1E)-2-(4-hydroxyphenyl)-ethenyl]-1,3-benzenediol]
